Test results from publication PMC7227612 (Clinical cancer research : an official journal of the …, 2009).
Marks after values point to notes of the source that are not given here.

Key:
[1] = system: GSK3β; test: Inhibition of GSK3β phosphorylation and activity in glioma cells in vitro; type: cell-based; settings: Supplementary Fig. S1, concentration dependent
[2] = system: recurrent malignant glioma; test: Tumor response; type: in vivo, human
[3] = system: phosphorylated GSK3β (pGSK3β); test: pGSK3β in patient peripheral blood mononuclear cells; type: in vivo, human
[4] = Steady-state plasma pharmacokinetics, group B; type: in vivo, human; settings: for Cmax / Tmax: human, plasma, oral; for Cmax: Cmax,ss
[5] = Toxicity and dose limiting toxicity; type: in vivo
[6] = system: glioma cells; test: Cytotoxic activity against glioma cells in vitro; type: cell-based; settings: Supplementary Fig. S1, concentration dependent
[7] = Steady-state plasma pharmacokinetics, group A; type: in vivo, human; settings: for Cav,ss: geometric mean (%CV); for Cmax / Tmax: human, plasma, oral
[8] = Group B, 500 mg twice daily, Patient 2
[9] = Group B, 1,000 mg daily, Patient 1
[10] = Group B, 1,000 mg daily, Patient 2
[11] = 500 mg, Group B, 500 mg twice daily, Patient 2
[12] = 1000 mg daily, Group B, 1,000 mg daily, Patient 1
[13] = 1000 mg daily, Group B, 1,000 mg daily, Patient 2

Cn1cc(C2=C(c3cn(C4CCN(Cc5ccccn5)CC4)c4ccccc34)C(=O)NC2=O)c2ccccc21 [Enzastaurin]
Phosphorylation and activity of GSK3β [1]: inhibits | Complete response (patients) ([2]; 19 patients evaluable): 1 | Partial response (patients) ([2]; 19 patients evaluable): 1 | Objective responses ([2]; 19 patients evaluable for radiographic response): 11% | Median overall survival ([2]; entire study group): 5.7 months | Median progression-free survival ([2]; entire study group): 1.4 months | Duration complete response maintained on therapy ([2]; one patient, Fig. 2): > 3 y | pGSK3β levels at steady state vs baseline ([3]; five patients who achieved disease control): decreased from baseline | pGSK3β at steady state vs baseline ([3]; one patient with progressive disease, after the first 3 weeks of therapy): increased | Kinetics of pGSK3β in peripheral blood mononuclear cells after administration ([3]; two patients, Fig. 3B): decrease in a time dependent manner | CL/F [4, 8]: 27 L/h | Cav,ss [4, 8]: 3,050 nmol/L | CL/F [4, 9]: 60 L/h | Cav,ss [4, 9]: 1,340 nmol/L | CL/F [4, 10]: 60 L/h | Cav,ss [4, 10]: 1,350 nmol/L | Cmax [4, 11]: 4090 nM | Tmax [4, 11]: 4 h | Cmax [4, 12]: 3010 nM | Cmax [4, 13]: 2730 nM | Tmax [4, 12]: 4 h | Tmax [4, 13]: 2 h | Dose-limiting toxicities ([5]; human, in vivo): thrombocytopenia and prolonged QTc | Elevated ALT, Grade 1-2 ([5]; human, in vivo): 5 (23%) | Elevated ALT, Grade 3-4 ([5]; human, in vivo): 1 | Elevated AST, Grade 1-2 ([5]; human, in vivo): 9 (41%) | Elevated AST, Grade 3-4 ([5]; human, in vivo): 0 | Hematuria, Grade 1-2 ([5]; human, in vivo): 1 | Hematuria, Grade 3-4 ([5]; human, in vivo): 0 | Hypermagnesemia, Grade 1-2 ([5]; human, in vivo): 1 | Hypermagnesemia, Grade 3-4 ([5]; human, in vivo): 0 | Intracranial hemorrhage, Grade 1-2 ([5]; human, in vivo): 0 | Intracranial hemorrhage, Grade 3-4 ([5]; human, in vivo): 0 | Nausea, Grade 1-2 ([5]; human, in vivo): 1 | Nausea, Grade 3-4 ([5]; human, in vivo): 0 | Proteinuria, Grade 1-2 ([5]; human, in vivo): 1 | Proteinuria, Grade 3-4 ([5]; human, in vivo): 0 | QTc prolongation, Grade 1-2 ([5]; human, in vivo): 5 (23%) | QTc prolongation, Grade 3-4 ([5]; human, in vivo): 2 (9%) ^* | Relationship between QTcB changes from baseline and plasma concentrations ([5]; human, in vivo): no significant relationship | Thrombocytopenia, Grade 1-2 ([5]; human, in vivo): 6 (27%) | Thrombocytopenia, Grade 3-4 ([5]; human, in vivo): 5 (23%) | Patients with dose limiting grade 3 thrombocytopenia ([5]; human, in vivo, 6 wk): 2 | Elevated ALT, Grade 5 ([5]; number of patients, N = 22): 0 | Elevated AST, Grade 5 ([5]; number of patients, N = 22): 0 | Hematuria, Grade 5 ([5]; number of patients, N = 22): 0 | Hypermagnesemia, Grade 5 ([5]; number of patients, N = 22): 0 | Nausea, Grade 5 ([5]; number of patients, N = 22): 0 | Proteinuria, Grade 5 ([5]; number of patients, N = 22): 0 | QTc prolongation, Grade 5 ([5]; number of patients, N = 22): 0 | Thrombocytopenia, Grade 5 ([5]; number of patients, N = 22): 0 | Intracranial hemorrhage, Grade 5 ([5]; number of patients, N = 22, in the setting of grade 3 thrombocytopenia): 1 ^† | Cytotoxicity [6]: direct cytotoxic activity | Cav,ss ([7]; DL 1, 800 mg daily, n = 12): 1,130 (89) nmol/L | Cav,ss ([7]; DL-1, 250 mg twice daily, n = 3): 1,040 (124) nmol/L | Cav,ss ([7]; DL-1, 500 mg daily, n = 5): 472 (109) nmol/L | Cmax ([7]; 250 mg): 1390 nM | Tmax ([7]; 250 mg): 6.03 h | Cmax ([7]; 400 mg): 2710 nM | Tmax ([7]; 400 mg): 4.03 h | Cmax ([7]; 500 mg): 979 nM | Tmax ([7]; 500 mg): 2.08 h | Tmax ([7]; 800 mg): 4 h
